Measured values as given in PMC9791066, “Investigations into the antibacterial effects and potential mechanism of gambogic acid and neogambogic acid” (Frontiers in Microbiology, 2022).

What was measured:
[1] = molecular target: T1, EfaUPPS (L91A) (Enterococcus faecalis, UniProt Q831K9, L97A); assay: UPPS inhibition assay, EfaUPPS L91A mutant; assay type: biochemical; settings: for effect of mutation on inhibitory effect of compound on EfaUPPS enzyme activity: L91A mutant compared with wild-type; for IC50 fold higher than that of the wild-type: L91A mutant vs wild-type (~3 μM)
T1 construct: His tag; made in house; host or cells: E. coli BL21(DE3)
T1 sequence (Q831K9 whole entry L97A): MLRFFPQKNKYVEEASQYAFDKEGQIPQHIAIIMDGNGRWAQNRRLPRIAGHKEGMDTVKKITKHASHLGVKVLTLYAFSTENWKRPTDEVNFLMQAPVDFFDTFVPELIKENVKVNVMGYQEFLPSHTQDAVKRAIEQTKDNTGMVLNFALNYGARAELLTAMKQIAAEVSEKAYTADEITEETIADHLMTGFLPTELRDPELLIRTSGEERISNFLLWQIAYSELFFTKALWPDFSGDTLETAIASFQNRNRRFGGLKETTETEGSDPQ
Method: The EfaUPPS site-directed mutagenesis was generated using QuikChange site-directed mutagenesis kit (Agilent) according to the manufacturer’s instructions. The purification of site-directed mutation was using a similar strategy as described above.
The UPPS inhibition assay was carried out by measuring the fluorescence of the reaction mixture in a black 96-well microtiter plate (Corning, United States). […] After the indicated incubation period, the reaction was terminated by the addition of 10 μl of 0.5 M EDTA solution. Transferred 50 μl of the reaction mixture into a new 96-well microtiter plate, and quenched with an equal volume of Master Reaction Mix (Pyrophosphate Assay Kit, Sigma-Aldrich, USA) for 30 min. The UPPS inhibitory activity was performed by calculating the fluorescence percentage through determining the fluorescence absorbance of reaction mixture at 316 and 456 nm. Data of UPPS inhibitory activities were plotted versus compound concentrations on a semi-log scale using GraphPad Prism7. All the results were the means of at least three biological replicates.

[2] = molecular target: T2, EfaUPPS (R42A) (Enterococcus faecalis, UniProt Q831K9, R48A); assay: Microscale thermophoresis binding assay, EfaUPPS R42A
T2 construct: His tag; made in house; host or cells: E. coli BL21(DE3)
T2 sequence (Q831K9 whole entry R48A): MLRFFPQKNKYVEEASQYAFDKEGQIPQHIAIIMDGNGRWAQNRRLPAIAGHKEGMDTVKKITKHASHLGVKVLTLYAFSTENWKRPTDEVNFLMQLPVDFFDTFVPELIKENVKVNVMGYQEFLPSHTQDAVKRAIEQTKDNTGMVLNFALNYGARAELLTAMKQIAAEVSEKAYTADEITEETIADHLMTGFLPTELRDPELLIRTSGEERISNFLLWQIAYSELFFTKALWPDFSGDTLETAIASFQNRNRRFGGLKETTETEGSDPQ
Method: To characterize the binding affinity between EfaUPPS and GA or NGA, the MST binding assay was performed as previously described ([Lin et al., 2020]). In brief, His-tagged EfaUPPS and site-directed mutated EfaUPPS were labeled with the NT- 647-NHS dye using the Monolith NTTM Protein Labeling Kit RED-NHS (NanoTemper Technologies). Two-fold serially diluted GA or NGA was mixed with 10 nM of labeled EfaUPPS or its derivatives in 10 μl of binding buffer (137 mM NaCl, 2.7 mM KCl, 10 mM Na2HPO4, 1.8 mM KH2PO4, and 0.05% Tween-20, pH 7.8), incubated for 15 min, at room temperature. And then, loaded the mixtures into NT.115 premium coated capillaries (NanoTemper Technologies). MST trace signals were collected from the IR laser on to off for about 20 s, under the 5% LED power and high MST power mode. The change of molecular thermophoresis was monitored by standardized fluorescence value Fnorm, and the binding curve was plotted according to the values of Fnorm. The formed complex affinity was analyzed by MO Affinity Analysis software version 2.3. Apparent dissociation constants (Kd) were calculated using nonlinear fitting assuming one specific binding site with the GraphPad Prism 7 software with the following formula: Y = B^∗Max X/KD + X.
(^∗ where BMax is the maximum theoretical specific binding; here BMax = 1).

[3] = test system: clinical strains of S. aureus, E. faecalis, L. monocytogenes; assay: MIC against clinical isolates; assay type: cell-based; settings: 10 more clinical strains of each species
Excerpt: Enterococcus faecalis ATCC29212 and Staphylococcus aureus ATCC29213 were purchased from the […]. Methicillin-resistant Staphylococcus aureus (MRSA), Listeria monocytogenes ATCC19117, Escherichia coli ATCC25922, Escherichia coli BAS849, DH5α and BL21 were from Lin lab storage. The clinical strains used in this study were isolated and identified from Affiliated Hospital of Nanjing University of Chinese Medicine and Nanjing Drum Tower Hospital, China. All the bacteria strains were routinely cultured in Luria-Bertani (LB) broth media (1% tryptone, 0.5% yeast extract, and 1% NaCl) at 37°C, except as noted.
Antibacterial activities were performed by examining the minimal inhibitory concentrations (MICs), which was determined by a microtiter broth dilution method as previously described ([Cotsonas King and Wu, 2009]), with minor modifications. Briefly, 96-well plates (Corning) were inoculated with 100 μl of LB broth per well containing 7 × 10^5 CFU/mL bacteria, followed by adding 100 μl of LB broth containing two-fold serial dilutions of the test compounds. Tetracycline (Tet) and ampicillin (Amp) and viridicatumtoxins were used as the positive controls. After 18 h of incubation, the MIC was determined to be the lowest concentration without visible bacterial growth. The results were the averages of at least three biological replicates.

[4] = test system: E. faecalis infection; assay: E. faecalis infected mouse model; assay type: in vivo, C57BL/6 J mice; settings: oral dose (40 μM), 19 days
Method: All animal studies had been reviewed and approved by the Animal Ethical and Welfare Committee of Nanjing University of Chinese Medicine. 8-week-old male C57BL/6 J mice were housed in groups of four mice per cage in a 12/12-h day light cycle with free access to food and water under conditions of controlled humidity (50 ± 5%) and temperature (22 ± 2°C). Mice were adaptively raised for a week before experiments. To explore the effects of GA and NGA on E. faecalis, the mice were randomly divided into four groups including control, E. faecalis, E. faecalis + GA and E. faecalis + NGA. Mice received an oral dose (40 μM) of GA or NGA from 30 min after E. faecalis (1 × 10^10 CFU) treatment for 19 days to sacrifice. The body weight of the mice was monitored daily. Afterwards mice spleens were collected and spleen weight was measured upon being sacrificed.
Spleen tissue sections of mice were fixed in 4% paraformaldehyde, dehydrated in alcohol, embedded in paraffin and then sliced into thin 5 μm sections. The tissues were then stained with hematoxylin & eosin (H&E). The tissue images were observed under an inverted microscope (Vectra 3.0, PerkinElmer, United States).
Retro-orbital blood was collected from the mice in asepsis tubes before dissection. The blood was centrifuged at 3500 g for 20 min to extract serum, which was stored at −20°C awaiting subsequent analyses. TNF-α-levels in serum was measured by ELISA according to the instructions of the manufacturer (eBioscience, United States).
Total RNA was extracted from the spleen of mice, and then the cDNA was synthesized with HiScript® II Q RT SuperMix for qPCR (Vazyme, China). qPCR was performed using the LightCycler®96 (Roche, Swiss). The qPCR primers of TNF-α (Forward: 5’-[…]-3′ and Reverse: 5’-[…]-3′) were designed and synthesized by GENERAY Biotechnology (Shanghai, China). GAPDH was used as the reference gene.

Structure (SMILES)	IC50 [1] [µM]	effect of mutation on inhibitory effect of compound on EfaUPPS enzyme activity [1]	IC50 fold higher than that of the wild-type [1]	Kd [2] [µM]	growth inhibitory activity (MICs) against clinical strains [3]	body weight of E. faecalis infection mice [4]	spleen inflammation (H&E spleen slides) [4]	splenomegaly (spleen weight) [4]	Kd fold higher than that of the wild-type ([2]; R42A vs wild-type)	TNF-α mRNA in spleen (qPCR) [4]	TNF-α-levels in serum (ELISA) ([4]; vs E. faecalis group)
CC(C)=CCC[C@]1(C)C=Cc2c(O)c3c(c(CC=C(C)C)c2O1)O[C@]12C(=C[C@@H]4C[C@H]1C(C)(C)O[C@@]2(C/C=C(/C)C(=O)O)C4=O)C3=O [GA, gambogic acid]	~30	significantly decreased	about 10 fold	40.5 ± 17.2	high potency in growth inhibitory activity	no observable effect	reduced signs of inflammation	significantly relieved splenomegaly			
CC(C)=CCC[C@]1(C)CC(O)c2c(O)c3c(c(CC=C(C)C)c2O1)O[C@]12C(=C[C@@H]4C[C@H]1C(C)(C)O[C@@]2(C/C=C(/C)C(=O)O)C4=O)C3=O (stereo partly shown) [NGA, neogambogic acid]	~30	significantly reduced	about 10 fold	62.9 ± 25.4	high potency in growth inhibitory activity	no observable effect	reduced signs of inflammation	significantly relieved splenomegaly	about 10 fold	significant downregulation	significantly reduced
